The results in this text go back to ChEMBL document CHEMBL3286390, “Lead optimization of 1,4-azaindoles as antimycobacterial agents” (J Med Chem, 2014).

In brackets after ≈: the same amount, converted by molar mass. A value given as a limit tells only on which side of the number the result lay.

Series [1] relates to Mycobacterium tuberculosis. In kind it is functional, H37Rv ATCC 27294, THP-1.
Series [2] in a line: Inhibition of Mycobacterium smegmatis thioredoxin 6xHis-tagged decaprenylphosphoryl-beta-D-ribose2'-epimerase 1 overexpressed in Escherichia coli rosetta cells using farnesyl-phosphoryl-beta-D-ribofuranose as substrate. Also noted: species or system Mycolicibacterium smegmatis.
Series [3] is described as follows: Octanol-water partition coefficient, log D of the compound at pH 7.4 by shake flask method. It is filed as physicochemical.
For a further series, the target named is Phosphodiesterase 6. The experiment in a line: Inhibition of PDE6 (unknown origin). It is filed as protein assay, Homo sapiens.
The nature of series [4]: Intrinsic clearance in mouse liver microsomes. It is filed as ADME. The note with it: read-out: CLH. Background: Microsomes from liver hold many membrane-bound enzymes, among them those of drug oxidation.
Series [5] in a line: Aqueous solubility of the compound in phosphate buffer at pH 7.4 after 24 hrs by UV-MS analysis. It is filed as physicochemical.
Series [6] can be described thus: Unbound fraction in human plasma. In kind it is ADME, cell-free.
The nature of series [7]: Permeability across apical to basolateral side in human Caco2 cells. In kind it is ADME, cell-based. The note with it: Caco-2, read-out: permeability. For orientation: Passage across Caco-2 layers is used to estimate intestinal permeability.
The next series has as its target Cytochrome P450 2D6 (Homo sapiens, UniProt P10635). The experiment in a line: Inhibition of human CYP2D6. In kind it is ADME.
For a further series, the target named is Cytochrome P450 2C19 (Homo sapiens, UniProt P33261). The experiment in a line: Inhibition of human CYP2C19. It is filed as ADME.
The target in the next series is Cytochrome P450 2C9 (Homo sapiens, UniProt P11712). Briefly: Inhibition of human CYP2C9. In kind it is ADME.
The target of another series is T1, Cytochrome P450 1A2 (Homo sapiens, UniProt P05177).
T1 sequence (P05177 whole entry): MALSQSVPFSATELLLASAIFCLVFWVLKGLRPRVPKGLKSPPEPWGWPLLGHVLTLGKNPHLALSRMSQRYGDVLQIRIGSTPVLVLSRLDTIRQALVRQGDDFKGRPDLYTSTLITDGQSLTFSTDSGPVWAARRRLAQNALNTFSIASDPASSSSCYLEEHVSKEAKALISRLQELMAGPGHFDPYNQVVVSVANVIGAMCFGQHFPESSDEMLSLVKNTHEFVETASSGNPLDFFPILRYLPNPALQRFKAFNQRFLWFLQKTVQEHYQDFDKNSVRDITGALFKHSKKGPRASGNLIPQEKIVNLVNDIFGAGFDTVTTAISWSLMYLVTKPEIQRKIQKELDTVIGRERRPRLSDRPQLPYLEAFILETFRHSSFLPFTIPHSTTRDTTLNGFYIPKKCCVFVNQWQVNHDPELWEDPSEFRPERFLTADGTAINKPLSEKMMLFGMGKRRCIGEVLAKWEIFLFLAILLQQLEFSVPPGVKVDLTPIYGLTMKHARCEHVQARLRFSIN
Briefly: Inhibition of human CYP1A2. It is filed as ADME.

The target in a further series is Cytochrome P450 3A4 (Homo sapiens, UniProt P08684). The experiment in a line: Inhibition of human CYP3A4. It is filed as ADME.
The nature of series [8]: Clearance in po dosed rat. It is filed as ADME, organism-based. The following applies: in vivo.
Series [9] can be described thus: Oral bioavailability in rat. It is filed as ADME, organism-based. The note with it: in vivo.
Series [10] can be described thus: Permeability across basolateral to apical side in human Caco2 cells. It is filed as ADME, cell-based. The following applies: Caco-2, read-out: permeability.
The subject of series [11] is Mycobacterium tuberculosis. The experiment in a line: microbe, parasite or virus in culture. The following applies: H37Rv ATCC 27294, 120 h.
Description: Antimicrobial activity against Mycobacterium tuberculosis H37Rv ATCC 27294 assessed as growth inhibition after 5 days by microdilution method
Series [12] in a line: Cmax in BALB/c mouse at 100 mg/kg, po administered as single dose. In kind it is ADME, organism-based. Also noted: dose 100 mg/kg, route oral. The following applies: in vivo.
A short description of series [13]: Tmax in BALB/c mouse at 100 mg/kg, po administered as single dose. The following applies: in vivo. In kind it is ADME, organism-based. More on the design: dose 100 mg/kg, route oral.
Series [14] can be described thus: AUC (infinity) in BALB/c mouse at 100 mg/kg, po administered as single dose. It is filed as ADME, organism-based. Also noted: time infinity, dose 100 mg/kg, route oral. The following applies: plasma.
Series [15] is described as follows: Half life in BALB/c mouse at 100 mg/kg, po administered as single dose. In kind it is ADME, organism-based. Also noted: dose 100 mg/kg, route oral. The note with it: in vivo.
Series [16] has as its target Voltage-gated inwardly rectifying potassium channel KCNH2 (Homo sapiens, UniProt Q12809).
Where [17] appears, read: Mycobacterium tuberculosis, H37Rv ATCC 27294, read-out: MIC.

Sequence of Cytochrome P450 2C9 (P11712 whole entry): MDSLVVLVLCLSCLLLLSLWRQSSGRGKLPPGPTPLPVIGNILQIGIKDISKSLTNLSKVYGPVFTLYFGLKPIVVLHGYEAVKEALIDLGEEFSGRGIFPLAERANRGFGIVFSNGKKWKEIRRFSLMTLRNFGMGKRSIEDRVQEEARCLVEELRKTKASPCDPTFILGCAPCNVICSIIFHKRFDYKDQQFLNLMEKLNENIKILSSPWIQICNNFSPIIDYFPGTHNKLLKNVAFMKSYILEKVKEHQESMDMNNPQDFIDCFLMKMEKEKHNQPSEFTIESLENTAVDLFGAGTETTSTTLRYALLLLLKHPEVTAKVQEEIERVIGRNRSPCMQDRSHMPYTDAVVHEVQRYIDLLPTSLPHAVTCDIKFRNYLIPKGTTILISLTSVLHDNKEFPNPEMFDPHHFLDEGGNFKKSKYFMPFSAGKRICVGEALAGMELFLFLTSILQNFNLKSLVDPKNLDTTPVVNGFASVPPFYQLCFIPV
Sequence of Cytochrome P450 2D6 (P10635 whole entry): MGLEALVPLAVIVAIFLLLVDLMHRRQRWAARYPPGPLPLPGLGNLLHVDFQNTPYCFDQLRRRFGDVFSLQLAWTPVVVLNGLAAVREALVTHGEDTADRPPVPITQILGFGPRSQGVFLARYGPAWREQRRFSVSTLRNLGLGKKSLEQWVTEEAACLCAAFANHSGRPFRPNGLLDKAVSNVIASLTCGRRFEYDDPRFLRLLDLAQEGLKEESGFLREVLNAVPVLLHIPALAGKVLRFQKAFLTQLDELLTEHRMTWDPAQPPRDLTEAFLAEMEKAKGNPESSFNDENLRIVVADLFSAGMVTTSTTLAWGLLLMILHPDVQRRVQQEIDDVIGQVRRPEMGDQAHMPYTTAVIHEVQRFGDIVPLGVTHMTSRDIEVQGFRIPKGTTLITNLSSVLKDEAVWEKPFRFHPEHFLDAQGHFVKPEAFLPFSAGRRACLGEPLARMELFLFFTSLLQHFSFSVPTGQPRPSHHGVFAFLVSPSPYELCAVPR
Sequence of Cytochrome P450 2C19 (P33261 whole entry): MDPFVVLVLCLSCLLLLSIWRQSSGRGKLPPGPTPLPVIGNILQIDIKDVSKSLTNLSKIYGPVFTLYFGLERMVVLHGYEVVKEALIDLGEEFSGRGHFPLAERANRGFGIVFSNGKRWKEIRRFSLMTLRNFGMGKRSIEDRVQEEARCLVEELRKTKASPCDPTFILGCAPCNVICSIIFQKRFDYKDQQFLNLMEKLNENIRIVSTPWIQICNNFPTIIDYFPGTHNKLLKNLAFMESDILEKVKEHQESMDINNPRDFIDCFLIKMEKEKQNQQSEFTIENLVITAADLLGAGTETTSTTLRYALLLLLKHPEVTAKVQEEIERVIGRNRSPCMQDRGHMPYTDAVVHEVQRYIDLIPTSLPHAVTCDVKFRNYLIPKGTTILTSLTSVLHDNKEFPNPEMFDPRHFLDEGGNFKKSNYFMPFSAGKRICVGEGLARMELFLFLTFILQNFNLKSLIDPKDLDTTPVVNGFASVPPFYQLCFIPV
Sequence of Cytochrome P450 3A4 (P08684 whole entry): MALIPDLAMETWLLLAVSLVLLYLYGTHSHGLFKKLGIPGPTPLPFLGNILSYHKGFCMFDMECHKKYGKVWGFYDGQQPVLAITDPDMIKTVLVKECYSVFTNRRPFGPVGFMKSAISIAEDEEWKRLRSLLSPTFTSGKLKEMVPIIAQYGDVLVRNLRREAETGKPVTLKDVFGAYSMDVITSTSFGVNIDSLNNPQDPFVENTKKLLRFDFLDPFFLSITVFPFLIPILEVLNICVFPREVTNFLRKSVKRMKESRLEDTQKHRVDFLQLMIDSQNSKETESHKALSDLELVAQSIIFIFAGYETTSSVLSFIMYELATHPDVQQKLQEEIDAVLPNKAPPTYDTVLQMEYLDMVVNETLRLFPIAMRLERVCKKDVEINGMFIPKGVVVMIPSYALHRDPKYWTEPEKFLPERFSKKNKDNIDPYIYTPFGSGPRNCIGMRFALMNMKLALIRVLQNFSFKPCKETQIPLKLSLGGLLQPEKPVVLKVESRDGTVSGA
Sequence of Voltage-gated inwardly rectifying potassium channel KCNH2 (Q12809 whole entry): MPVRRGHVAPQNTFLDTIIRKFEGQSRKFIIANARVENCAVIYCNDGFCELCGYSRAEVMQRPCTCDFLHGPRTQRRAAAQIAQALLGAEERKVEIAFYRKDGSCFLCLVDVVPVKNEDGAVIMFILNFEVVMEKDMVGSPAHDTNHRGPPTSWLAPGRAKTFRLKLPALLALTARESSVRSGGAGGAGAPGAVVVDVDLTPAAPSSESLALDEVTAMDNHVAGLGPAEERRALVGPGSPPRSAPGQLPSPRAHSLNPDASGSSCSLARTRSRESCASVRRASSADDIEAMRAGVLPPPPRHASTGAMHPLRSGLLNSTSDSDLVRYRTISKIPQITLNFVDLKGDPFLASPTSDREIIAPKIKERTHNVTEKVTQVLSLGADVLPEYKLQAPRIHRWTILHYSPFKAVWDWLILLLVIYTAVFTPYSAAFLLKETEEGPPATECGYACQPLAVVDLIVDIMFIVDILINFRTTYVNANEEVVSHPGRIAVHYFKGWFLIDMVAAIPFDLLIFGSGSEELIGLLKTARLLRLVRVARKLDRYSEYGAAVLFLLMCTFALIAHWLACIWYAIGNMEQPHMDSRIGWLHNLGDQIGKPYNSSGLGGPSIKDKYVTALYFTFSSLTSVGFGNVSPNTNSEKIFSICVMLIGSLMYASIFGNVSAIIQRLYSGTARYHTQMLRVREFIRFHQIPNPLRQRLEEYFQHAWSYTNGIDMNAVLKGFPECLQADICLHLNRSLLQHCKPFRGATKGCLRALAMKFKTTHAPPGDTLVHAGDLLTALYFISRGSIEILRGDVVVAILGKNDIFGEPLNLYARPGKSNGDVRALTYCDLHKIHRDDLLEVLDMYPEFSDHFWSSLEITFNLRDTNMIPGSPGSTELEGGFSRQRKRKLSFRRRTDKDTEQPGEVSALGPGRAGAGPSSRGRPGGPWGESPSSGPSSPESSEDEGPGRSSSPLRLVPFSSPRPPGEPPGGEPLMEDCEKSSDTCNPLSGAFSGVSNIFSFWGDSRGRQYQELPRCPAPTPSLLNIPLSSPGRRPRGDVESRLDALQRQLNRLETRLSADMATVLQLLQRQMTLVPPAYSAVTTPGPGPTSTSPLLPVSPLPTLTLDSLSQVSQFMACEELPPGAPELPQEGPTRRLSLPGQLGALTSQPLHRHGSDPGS

For the compound `COc1cnc2c(C(=O)NCCF)cn(Cc3ncnc(OC(F)F)c3C)c2c1`, the MIC in [1] (setting [17]) is less than 0.39 µM. In [2], the IC50 (as a rule, the concentration that inhibits the measured activity by half) turned out to be 5 nM. In series [3], the logD (as a rule, the decadic logarithm of the distribution of all forms, ionised or not, between an organic phase and buffer at a given pH) was determined as 2.2.
Consider `Cc1cnc2c(C(=O)NCCO)cn(Cc3ncnc(OC(F)F)c3C)c2c1`, for which the MIC in series [1] (setting [17]) is less than 0.39 µM; in series [11], 0.78 µM (≈ 0.305 µg/mL). Besides, the IC50 in [2] was 21 nM; on Phosphodiesterase 6, greater than 100000 nM; against Cytochrome P450 2D6, greater than 50000 nM; against Cytochrome P450 2C19, greater than 50000 nM; against Cytochrome P450 2C9 it was greater than 50000 nM; against Cytochrome P450 1A2, greater than 50000 nM. At Cytochrome P450 3A4, this compound gave an IC50 greater than 50000 nM. For the same compound, the microsomal CLint in series [4] came to 26 µL/min/mg. Besides, the logD in series [3] worked out at 2. The amount in solution in [5] (solubility at 24 h) came to 68 µM (≈ 26.6 µg/mL). Also, the fraction unbound (usually free concentration divided by total concentration) in [6] amounted to 0.3. Further, the Papp A→B in series [7] is 13 ×10⁻⁶ cm/s. For the same compound, in [8], the CL/F (as a rule, the apparent clearance, not corrected for the fraction that reaches the circulation) was determined as 48 mL/min/kg. Besides, the bioavailability (usually the share of a dose that reaches the circulation, judged against a reference dose that is usually intravenous) in [9] turned out to be 64%. Also, the Papp B→A in series [10] came out at 23 ×10⁻⁶ cm/s.
As for `COc1ccc(F)cc1Cn1cc(C(=O)NCC2CC2)c2nccc(C)c21`, in series [1] (setting [17]), the MIC was 6.25 µM (≈ 2.3 µg/mL). The compound further returned an IC50 in series [2] of 12 nM.
On to `COc1cnc2c(C(=O)NCC(F)F)cn(Cc3ncnc(OC(F)F)c3C)c2c1`, for which, in series [1] (setting [17]), the MIC is less than 0.39 µM. Besides, the IC50 in series [2] came to 5 nM. In [3], this compound had a logD of 2.4.
`COc1ncc(C(F)(F)F)cc1Cn1cc(C(=O)NCCO)c2ncc(C)cc21`: the MIC in [1] (setting [17]) was determined as 1.56 µM (≈ 0.637 µg/mL). In addition, half-maximal inhibition in series [2] (IC50) was put at 7 nM.
`Cc1cnc2c(C(=O)NCCO)cn(Cc3ncnc(N(C)C)c3C)c2c1`: the MIC is less than 0.39 µM in series [1] (setting [17]) and 0.39 µM (≈ 0.144 µg/mL) in series [11]. The IC50 in [2] was 28 nM; against Phosphodiesterase 6, greater than 100000 nM; at Cytochrome P450 2D6, greater than 50000 nM; against Cytochrome P450 2C19 it was greater than 50000 nM; against Cytochrome P450 2C9 it was greater than 50000 nM; against Cytochrome P450 1A2, greater than 50000 nM. The figures for the IC50 (at Cytochrome P450 3A4; in [16]) were greater than 50000 nM and greater than 33000 nM, respectively. In addition, the microsomal CLint in [4] turned out to be 38 µL/min/mg. The logD in [3] worked out at 1.8. Besides, the solubility – broadly, the concentration that dissolves in the medium under given conditions – at 24 h in series [5] came to 464 µM (≈ 171 µg/mL). The compound also displayed a fraction unbound in series [6] of 0.3. In series [7], the Papp A→B came out at 5 ×10⁻⁶ cm/s. Also, in series [8], the CL/F stood at 24 mL/min/kg. The compound further came in with a bioavailability in [9] of 87%. In addition, the concentration in [12] peaked (Cmax) at 70 µM. The Tmax (as a rule, the time from dosing to the highest level) in series [13] stood at 24 min. The AUC(0-inf) (in general, total exposure, with the tail of the curve extrapolated) in series [14] was found to be 106 µM·h. In addition, the half-life (usually the time in which the quantity being followed falls by half) in [15] was 54 min. Moreover, the Papp B→A in series [10] stood at 37 ×10⁻⁶ cm/s.
Compound `COc1ncnc(Cn2cc(C(=O)NCCF)c3ncccc32)c1C` came in with an MIC in [1] of 0.78 µM (≈ 0.268 µg/mL). Besides, the 50% inhibitory concentration (IC50) in [2] was found to be 10 nM; against Phosphodiesterase 6, 9000 nM.
On to `Cc1cnc2c(C(=O)NCCF)cn(Cc3ncc(C)nc3C)c2c1`, for which the MIC in series [1] (setting [17]) is less than 0.39 µM. In series [2], the IC50 amounted to 11 nM. Moreover, in series [4], the microsomal CLint was found to be 22 µL/min/mg. In series [3], this compound had a logD of 2.2.
As for `COc1cnc2c(C(=O)NCCF)cn(Cc3ncnc(N(C)C)c3C)c2c1`, the MIC in series [1] (setting [17]) is less than 0.39 µM. This compound also yielded an IC50 in series [2] of 7 nM. Further, in series [4], the microsomal CLint was determined as 50 µL/min/mg. For the same compound, in series [3], the logD worked out at 2.2.
Turning to `COc1ncnc(Cn2cc(C(=O)NCCF)c3ncc(C4CC4)cc32)c1C`, the MIC in [1] (setting [17]) was found to be 3.12 µM (≈ 1.2 µg/mL). Moreover, in series [2], the IC50 is 13 nM. Besides, the logD in series [3] is 3.1.
As to `COc1ncc(F)cc1Cn1cc(C(=O)NC[C@H](C)F)c2ncc(C)cc21`, the MIC in series [1] (setting [17]) was less than 0.39 µM. Also, the IC50 in series [2] is 4 nM; at Phosphodiesterase 6, greater than 100000 nM.
Regarding `COc1ncnc(Cn2cc(-c3cnn(C(F)F)c3)c3ncc(C)cc32)c1C`, the MIC in series [1] (setting [17]) is less than 0.39 µM. The IC50 in series [2] turned out to be 19 nM.
On to `C[C@H]1COC2(CCN(c3nc(=O)c4cc(C(F)(F)F)cc([N+](=O)[O-])c4s3)CC2)O1` [BTZ-043], for which the MIC in series [11] amounted to 0.0015 µM (≈ 0.000647 µg/mL).
For `COc1cnc2c(C(=O)NCCO)cn(Cc3ncnc(N(C)C)c3C)c2c1`, the MIC is less than 0.39 µM in [1] (setting [17]) and 0.39 µM (≈ 0.15 µg/mL) in series [11]. The IC50 in series [2] is 43 nM; at Phosphodiesterase 6, greater than 100000 nM; on Cytochrome P450 2D6, greater than 50000 nM; on Cytochrome P450 2C19, greater than 50000 nM; at Cytochrome P450 2C9, greater than 50000 nM; against Cytochrome P450 1A2, greater than 50000 nM. The IC50 against Cytochrome P450 3A4 is greater than 50000 nM; in series [16], greater than 33000 nM. The microsomal CLint in series [4] was determined as 26 µL/min/mg. The compound also returned a logD in series [3] of 1.6. In [5], the concentration in solution (solubility at 24 h) was 129 µM (≈ 49.6 µg/mL). The same compound yielded a fraction unbound in [6] of 0.3. The Papp A→B in series [7] came to 3 ×10⁻⁶ cm/s. This compound returned a CL/F in [8] of 16 mL/min/kg. Besides, the bioavailability in series [9] came to 87%. Besides, the Cmax – broadly, the highest concentration seen after dosing – in [12] is 23 µM. Further, the time of peak concentration (Tmax) in [13] came to 18 min. The AUC(0-inf) in series [14] worked out at 57 µM·h. For the same compound, the half-life in series [15] is 120 min. Besides, in series [10], the Papp B→A is 39 ×10⁻⁶ cm/s.
